Source: patent publication US20250295799A1, “ANTIBODY-DRUG CONJUGATES TARGETING GLYPICAN-3 AND METHODS OF USE” (Zymeworks BC Inc., priority 2022, published 2025)

Assays:
[1] = system: JHH-5 cells (mid GPC3-expressing); experiment: Internalization by flow cytometry (quenched AF488); type: cell-based; settings: 5 nM, 24 h
Method: (§1) Cells were seeded at 50,000 cells/well in 48-well plates and incubated overnight under standard culturing conditions (37° C./5% CO2) Gibco™ William's E Medium, GlutaMAX™ Supplement (Thermo Fisher Scientific, Waltham, MA; Cat. No. 32551020) with 10% FBS (Thermo Fisher Scientific, Waltham, MA; Cat. No. 12483020). Coupled antibodies were added to cells the following day at 5 nM and incubated under standard culturing conditions for 24 hours to allow for internalization. Following incubation, cells were dissociated, washed, and surface AF488 fluorescence was quenched using an anti-AF488 antibody (Life Technologies, Carlsbad, CA; Cat. No. A-11094) at 100 nM for 30 minutes at 4° C. Quenched AF488 fluorescence (internalized fluorescence) was detected by flow cytometry on a BD LSRFortessa™ Cell Analyzer (BD Biosciences, Franklin Lake, NJ) with 1,000 minimum events collected per well.
Briefly, plasma stress was carried out by incubating M3-H18L6 LC-modified antibodies in mouse plasma (BioIVT, Westbury, NY; Cat. No. MSE00PL38NC-0103070) for 14 days in a 37° C./5% CO2 incubator. […] Following incubation and washing, fluorescence was detected by flow cytometry on a BD LSRFortessa™ Cell Analyzer (BD Biosciences, Franklin Lake, NJ) with 1,000 minimum events collected per well. […]

[2] = biological target: T1, human GPC3 on transfected CHO-S cells (Homo sapiens, UniProt P51654); experiment: Binding to transfected CHO-S cells by flow cytometry; settings: 24 h at 4 °C
T1 construct: expressed in transfected cells; host or cells: CHO-S cells, transient transfection (Neon system)
Method: (§2) Following transfection, cells were seeded at 50,000 cells/well in V-bottom 96-well plates and treated with antibody for 24 hours at 4° C. to prevent internalization. […] Following incubation and washing, fluorescence was detected by flow cytometry on a BD LSRFortessa™ Cell Analyzer (BD Biosciences, Franklin Lake, NJ) with 1,000 minimum events collected per well.
as §2

[3] = system: JHH-7 cells (high GPC3-expressing); experiment: Internalization by flow cytometry (quenched AF488); type: cell-based; settings: JHH-7; 5 nM; 24 h
Method: as §1, with “C./5% CO2) in Gibco™ Dulbecco's Modified Eagle Media (DMEM) (Thermo Fisher Scientific, Waltham, MA; Cat. No. 11995040) with 10% Fetal Bovine Serum (FBS) (Thermo Fisher Scientific, Waltham, MA; Cat. No. 12483020) for Hep G2 cells, and Gibco™ William's” for “C./5% CO2) Gibco™ William's”, “Cat. No. 12483020) for JHH-7 cells. Coupled antibodies” for “Cat. No. 12483020). Coupled antibodies”, “day at 10 nM or at 100 nM and” for “day at 5 nM and”, “conditions for 5-24 hours to” for “conditions for 24 hours to”
as §1, with “well. […]” for “well.”

With palivizumab the “internalization, in words” value [1] was “minimal internalization”, the “binding to CHO-S cells expressing human GPC3, in words” value [2] was “did not exhibit any binding” and the “internalization, in words” value [3] was “minimal internalization”.
